# Values of other authors, collected in US20240238452A1, “STAINING AGENT FOR GASTROINTESTINAL MUCOSA AND PREPARATION METHOD THEREFOR” (BEIJING COMPONT MEDICAL DEVICES CO., LTD., priority 2023, published 2024).
# Legend:
# [1] = International Journal of Toxicology 2010
# [2] = EFSA report 2009
allowable daily intake (ADI) [2] [mg/kg·bw/day],Structure (SMILES),"safety: acute oral, short-term skin, subchronic skin, heredity and other aspects [1]"
–,Cc1ccc(Nc2ccc(O)c3c2C(=O)c2ccccc2C3=O)c(S(=O)(=O)[O-])c1.[Na+] [acid violet 43],no abnormal report
7,COc1cc(S(=O)(=O)[O-])c(C)cc1N=Nc1c(O)ccc2cc(S(=O)(=O)[O-])ccc12.[Na+].[Na+] [allure red],–
5,"O=C1/C(=C2\Nc3ccc(S(=O)(=O)[O-])cc3C2=O)Nc2ccc(S(=O)(=O)[O-])cc21.[Na+].[Na+] [indigo carmine, reference compound]",–
